Measured values as given in US20220372031A1, “NOVEL TRICYCLIC AROMATIC HETEROCYCLIC COMPOUND, PREPARATION METHOD THEREFOR, PHARMACEUTICAL COMPOSITION AND APPLICATION THEREOF” (SHANGHAI LONGWOOD BIOPHARMACEUTICALS CO., LTD., priority 2019, published 2022).

The compounds below were run against T1, PD-1/PD-L1 (Homo sapiens, UniProt Q9NZQ7) (assay: PD-1/PD-L1 homogeneous time-resolved fluorescence (HTRF) binding assay). Conditions: PD-1/PD-L1 HTRF binding, ~3 nM PD1, 10 nM PD-L1, 25° C., PBS pH 7.4.
T1 construct: Recombinant human PD-L1 protein (19-238) with a His-tagged at the C-terminus; purchased AcroBiosystems PD1-H5229 (PD-L1); PD1-H5257 (PD-1)
T1 sequence (Q9NZQ7 19-238): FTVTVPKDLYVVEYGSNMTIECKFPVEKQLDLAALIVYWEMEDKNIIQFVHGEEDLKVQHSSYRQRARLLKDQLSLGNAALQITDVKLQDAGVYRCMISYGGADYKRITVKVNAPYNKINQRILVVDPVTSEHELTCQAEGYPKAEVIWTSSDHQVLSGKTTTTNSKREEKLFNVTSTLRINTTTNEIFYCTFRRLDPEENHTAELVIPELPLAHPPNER
Protocol: Assays were performed in standard black 384-well polystyrene plates and a final volume was 20 μL. The inhibitor was first serially diluted with DMSO and added to the wells of the plate, followed by the addition of other reaction components. The final concentration of DMSO in the assay was 1%. Assays were performed at 25° C. in PBS buffer (pH 7.4) containing 0.05% Tween-20 and 0.1% BSA. Recombinant human PD-L1 protein (19-238) with a His-tagged at the C-terminus was purchased from AcroBiosystems (PD1-H5229). Recombinant human PD-1 protein (25-167) with an Fc tag at the C-terminus was also purchased from AcroBiosystems (PD1-H5257). The PD-L1 and PD-1 proteins were diluted in assay buffer and then […] of the solution was extracted and added to the wells of the plate. Plates were centrifuged and proteins and inhibitors were preincubated for 40 minutes. After incubation, 0.1 μl of HTRF detection buffer containing europium […] labeled anti-human IgG (PerkinElmer-AD0212), Fc-specific and anti-His SureLight®-Allophycocyanin (APC, PerkinElmer-AD0059H) conjugated antibodies was added. After centrifugation, the plates were incubated at 25° C. for 60 minutes. Data was read in a PHERAstar FS plate reader (665 nm/620 nm ratio). Final concentrations in the assay were ˜3 nM PD1, 10 nM PD-L1, 1 nM europium anti-human IgG, and 20 nM anti-His-allophycocyanin. Activity data were fitted using GraphPad Prism 5_0 software to derive IC50 values for inhibitors.

Compound	IC50 [nM]
COc1nc(-c2cccc(-c3cccc(-c4cc5cc6c(c(C#N)c5o4)CC[C@H]6N4CC[C@@H](C(=O)NS(=O)(=O)C5(C)CC5)C4)c3C)c2Cl)cnc1CN1CC[C@@H](O)C1 [Compound 267]	≤ 10
COc1nc(-c2cccc(-c3cccc(-c4nc5cc6c(c(C#N)c5o4)CC[C@H]6N4CC[C@@H](C(=O)O)C4)c3Cl)c2C)cnc1CNC[C@@H]1CCC(=O)N1 [Compound 268]	≤ 10
COc1nc(-c2cccc(-c3cccc(-c4cc5cc6c(c(C#N)c5o4)CC[C@H]6N4CC[C@@H](C(=O)O)C4)c3Cl)c2C)cnc1CNC[C@@H]1CCC(=O)N1 [Compound 271]	≤ 10
Cc1c(Nc2nccc3cc(CNC[C@@H]4CCC(=O)N4)cnc23)cccc1-c1cccc(-c2cc3cc4c(c(C#N)c3o2)CC[C@H]4N2CC[C@@H](C(=O)O)C2)c1Cl [Compound 274]	≤ 10
Cc1c(Nc2nccc3cc(CN4CC[C@@H](O)C4)cnc23)cccc1-c1cccc(-c2cc3c4c(cc([N+](=O)[O-])c3o2)C(N2CC(C(=O)O)C2)CCC4)c1C (stereo partly shown) [Compound 280]	> 100

Second part, the compound after the results:

IC50 [nM]	Compound
≤ 10	COc1nc(-c2cccc(-c3cccc(-c4cc5cc6c(c(C#N)c5o4)CC[C@H]6N4CC[C@@H](C(=O)NS(=O)(=O)C5CC5)C4)c3Cl)c2C)cnc1CN1CC[C@@H](O)C1 [Compound 262]
≤ 10	COc1nc(-c2cccc(-c3cccc(-c4cc5cc6c(c(C#N)c5o4)CC[C@H]6N4CC[C@@H](C(=O)NS(=O)(=O)C5CC5)C4)c3C)c2Cl)cnc1CN1CC[C@@H](O)C1 [Compound 263]
≤ 10	COc1nc(-c2cccc(-c3cccc(-c4cc5cc6c(c(C#N)c5o4)CC[C@H]6N4CC[C@@H](C(=O)NS(=O)(=O)C5(C)CC5)C4)c3C)c2C)cnc1CN1CC[C@@H](O)C1 [Compound 264]
≤ 10	COc1nc(-c2cccc(-c3cccc(-c4cc5cc6c(c(C#N)c5o4)CC[C@H]6N4CC[C@@H](C(=O)NS(=O)(=O)C5(C)CC5)C4)c3Cl)c2Cl)cnc1CN1CC[C@@H](O)C1 [Compound 265]
≤ 10	COc1nc(-c2cccc(-c3cccc(-c4cc5cc6c(c(C#N)c5o4)CC[C@H]6N4CC[C@@H](C(=O)NS(=O)(=O)C5(C)CC5)C4)c3Cl)c2C)cnc1CN1CC[C@@H](O)C1 [Compound 266]
